# In ChEMBL document CHEMBL1128247, “Prediction of receptor properties and binding affinity of ligands to benzodiazepine/GABAA receptors using artificial neural networks” (J Med Chem, 1995):
# Molecular target: GABA-A receptor; anion channel
# Assay: Binding affinity towards benzodiazepine/GABA A receptor.
# Type: protein-complex assay
# Design: unit not given here
row,Structure (SMILES),Log IC50
1,COCN1C(=O)CN=C(c2ccccc2)c2cc([N+](=O)[O-])ccc21 [MOTRAZEPAM],-2.633
2,O=C1CN=C(c2ccccc2Cl)c2cc(Cl)ccc2N1 [DELORAZEPAM],-0.255
3,C=Cc1ccc2c(c1)C(c1ccccc1)=NCC(=O)N2,-1.38
4,[N-]=[N+]=Nc1ccc2c(c1)C(c1ccccc1F)=NCC(=O)N2,-0.724
5,CN1C(=O)CN=C(c2c(Cl)cccc2Cl)c2cc(Cl)ccc21,-0.74
6,CN1C(=O)CN=C(c2ccccc2Cl)c2cc([N+](=O)[O-])ccc21 [RO-054082],-0.342
7,O=C1CN=C(c2ccccc2C(F)(F)F)c2cc([N+](=O)[O-])ccc2N1,-0.544
8,CN1C(=O)CN=C(c2ccccc2Cl)c2ccccc21,-0.58
9,O=C1CN=C(c2c(F)cccc2F)c2ccc(Cl)cc2N1,-1.447
10,CC(C)(C)N1C(=O)CN=C(c2ccccc2)c2cc(Cl)ccc21,-2.792
11,CN1C(=O)CN=C(c2ccccc2F)c2cc(I)ccc21,-0.462
12,O=C1CN=C(c2c(F)cccc2F)c2cc(Cl)ccc2N1,-0.204
13,O=C1CN=C(c2ccccc2F)c2cc([N+](=O)[O-])ccc2N1,-0.176
14,CN1C(=O)C(O)N=C(c2ccccc2)c2cc(Cl)ccc21 (centres undefined) [TEMAZEPAM],-1.204
15,O=C1CN=C(c2ccccc2F)c2cc(Cl)ccc2N1,-0.301
16,Nc1ccc2c(c1)C(c1ccccc1Cl)=NCC(=O)N2 [7-AMINOCLONAZEPAM],-1.875
17,CN1C(=O)CN=C(c2ccccc2F)c2cc(C#N)ccc21,-1.477
18,O=Cc1ccc2c(c1)C(c1ccccc1)=NCC(=O)N2,-1.633
19,CN1C(=O)CN=C(c2c(F)cccc2F)c2cc(Br)ccc21,-0.38
20,CN1C(=O)CN=C(c2c(F)cccc2F)c2cc(Cl)ccc21,-0.613
21,O=C1CN=C(c2ccccc2Cl)c2cc([N+](=O)[O-])ccc2N1 [CLONAZEPAM],-0.255
22,O=C1CN=C(c2ccccc2)c2cc(C(F)(F)F)ccc2N1 [RO-052904],-1.114

row,Structure (SMILES),Log IC50
1,O=C1CN=C(c2ccccc2F)c2ccccc2N1,-1.322
2,CC1N=C(c2ccccc2)c2cc(Cl)ccc2N(Cl)C1=O (centres undefined),-1.69
3,Cc1ccc2c(c1)NC(=O)CN=C2c1ccccc1F,-1.279
4,O=C1CN=C(c2ccccc2)c2cc(Cl)ccc2N1CC(F)(F)F [HALAZEPAM],-1.964
5,O=C1CN=C(c2ccccc2)c2cc(Cl)ccc2N1 [NORDAZEPAM],-0.973
6,O=C1CN=C(c2ccccc2F)c2cc(F)ccc2N1,-0.869
7,CN1C(=O)CN=C(c2ccccc2)c2cc(C#N)ccc21,-2.58
8,O=C1CN=C(c2ccccc2)c2cc(F)ccc2N1 [RO-053061],-1.602
9,CN1C(=O)CN=C(c2ccccc2F)c2cc(F)ccc21,-0.708
10,O=C1CN=C(c2c(F)cccc2F)c2ccccc2N1,-1.279
11,O=C1CN=C(c2c(Cl)cccc2Cl)c2cc(Cl)ccc2N1 [RO-223294],-0.845
12,CC(C)(C)N1C(=O)CN=C(c2ccccc2F)c2cc([N+](=O)[O-])ccc21,-2.477
13,Nc1ccc2c(c1)C(c1ccccc1)=NCC(=O)N2 [7-AMINO-NITRAZEPAM],-2.587
14,CN1C(=O)CN=C(c2ccccc2)c2cc(F)ccc21,-1.23
15,CN1C(=O)CN=C(c2ccccc2F)c2cc(N)ccc21 [7-AMINO-FLUNITRAZEPAM],-1.813
16,CN1C(=O)CN=C(c2ccccc2)c2cc(N)ccc21,-2.663
17,CN1C(=O)CN=C(c2ccccc2F)c2ccccc21 [RO-054520],-1.146
18,CN1C(=O)CN=C(c2ccccc2F)c2cc(NO)ccc21,-1.982
19,CN1C(=O)CN=C(c2ccccc2)c2cc(Cl)c(Cl)cc21,-1.602
20,O=C1Nc2ccc(Cl)cc2C(c2ccccc2F)=NC1Cl (centres undefined),-0.724
21,O=C1CN=C(c2ccccc2)c2cc([N+](=O)[O-])ccc2N1 [NITRAZEPAM],-1
22,CCc1ccc2c(c1)C(c1ccccc1)=NCC(=O)N2,-1.556
